18 compounds from patent publication US20250282799A1, “SUBSTITUTED PYRIDO[4,3-d]PYRIMIDINES AS KRAS MODULATORS” (Alterome Therapeutics, Inc., priority 2023, published 2025) can be followed below.

The subject of this assay is KRAS G12V dependent lung adenocarcinoma cell line, NCI-H441. The assay is described as follows: Cellular pERK (Thr202/Tyr204) FRET/HTRF assay. It is filed as cell-based. The conditions noted are these: Homo sapiens, NCI-H441, cellular pERK (Thr202/Tyr204) HTRF, NCI-H441 cells. The procedure, abridged: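 Phospho-ERK1/2 (Thr202/Tyr204) quantified by two-antibody HTRF in lysed NCI-H441 cells. Cells seeded overnight, treated with test compounds for 1 hr at 37 °C against DMSO control, then lysed and detected at room temperature; IC50 obtained by curve fitting.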
For orientation: TR-FRET usually uses a lanthanide donor and a delayed reading to cut background.

SMILES strings stand for the structures. pIC50: −log10 of the molar value. Some results are limits rather than exact numbers.

Consider `[2H]C([2H])(Oc1nc(N2CCOC[C@H]3[C@H](F)[C@H]32)c2cnc(-c3cc(N)cc(C4CC4)c3C(F)(F)F)c(F)c2n1)[C@@]12CCCN1C[C@H](F)C2` [Example 165, 3-cyclopropyl-5-(8-fluoro-4-((1S,7S,8S)-8-fluoro-5-oxa-2-azabicyclo[5.1.0]octan-2-yl)-2-(((2R,7aS)-2-fluorotetrahydro-1H-pyrrolizin-7a(5H)-yl)methoxy-d2)pyrido[4,3-d]pyrimidin-7-yl)-4-(trifluoromethyl)aniline], for which the pIC50 (as a rule, the negative decadic logarithm of the IC50, by convention in mol/L) is 6.30 to 7.30. Consider `C#Cc1c(F)ccc2cccc(-c3ncc4c(N5CCOC[C@H]6[C@H](F)[C@H]65)nc(OC[C@]56CC(=C)CN5CCC65CC5)nc4c3F)c12` [Example 166, (1S,7S,8S)-2-(7-(8-Ethynyl-7-fluoronaphthalen-1-yl)-8-fluoro-2-(((R)-6′-methylenetetrahydrospiro[cyclopropane-1,1′-pyrrolizin]-7a′(5′H)-yl)methoxy)pyrido[4,3-d]pyrimidin-4-yl)-8-fluoro-5-oxa-2-azabicyclo[5.1.0]octane], for which the pIC50 was over 7.30.

Take `[2H]C([2H])(Oc1nc(N2CCOC[C@H]3[C@H](F)[C@H]32)c2cnc(-c3cc(N)c(F)c(C)c3C(F)(F)F)c(F)c2n1)[C@@]12CCCN1C[C@H](F)C2` [Example 167, 2-Fluoro-5-(8-fluoro-4-((1S,7S,8S)-8-fluoro-5-oxa-2-azabicyclo[5.1.0]octan-2-yl)-2-(((2R,7aS)-2-fluorotetrahydro-1H-pyrrolizin-7a(5H)-yl)methoxy-d2)pyrido[4,3-d]pyrimidin-7-yl)-3-methyl-4-(trifluoromethyl) aniline]: the pIC50 was over 7.30.

`[2H]C([2H])(Oc1nc(N2CCOC[C@H]3[C@H](F)[C@H]32)c2cnc(-c3cc(N)cc(C)c3C(F)(F)F)c(F)c2n1)[C@@]12CCCN1C[C@H](F)C2` [Example 168, 3-(8-fluoro-4-((1S,7S,8S)-8-fluoro-5-oxa-2-azabicyclo[5.1.0]octan-2-yl)-2-(((2R,7aS)-2-fluorotetrahydro-1H-pyrrolizin-7a(5H)-yl)methoxy-d2)pyrido[4,3-d]pyrimidin-7-yl)-5-methyl-4-(trifluoromethyl)aniline] showed a pIC50 of 5.00 to 6.30. In the case of `[2H]C([2H])(Oc1nc(N2CCOC[C@H]3[C@H](F)[C@H]32)c2cc(F)c(-c3cc(N)cc(C)c3C(F)(F)F)c(F)c2n1)[C@@]12CCCN1C[C@H](F)C2` [Example 169, 3-(6,8-difluoro-4-((1S,7S,8S)-8-fluoro-5-oxa-2-azabicyclo[5.1.0]octan-2-yl)-2-(((2R,7aS)-2-fluorotetrahydro-1H-pyrrolizin-7a(5H)-yl)methoxy-d2)quinazolin-7-yl)-5-methyl-4-(trifluoromethyl)aniline] it was 5.00 to 6.30; in that of `C#Cc1c(F)ccc2cc(N)cc(-c3ncc4c(N5CCOC[C@H]6[C@H](F)[C@H]65)nc(OC[C@]56CC(=C)CN5CCC65CC5)nc4c3F)c12` [Example 171, 5-Ethynyl-6-fluoro-4-(8-fluoro-4-((1S,7S,8S)-8-fluoro-5-oxa-2-azabicyclo[5.1.0]octan-2-yl)-2-(((R)-6′-methylenetetrahydrospiro[cyclopropane-1,1′-pyrrolizin]-7a′(5′H)-yl)methoxy)pyrido[4,3-d]pyrimidin-7-yl)naphthalen-2-amine], over 7.30; in that of `[2H]C([2H])([2H])Oc1c(F)cc(F)c2cc(N)cc(-c3ncc4c(N5CCOC[C@H]6[C@H](F)[C@H]65)nc(OC[C@@]56CCCN5C/C(=C\F)C6)nc4c3F)c12` [Example 172, 6,8-difluoro-4-(8-fluoro-4-((1S,7S,8S)-8-fluoro-5-oxa-2-azabicyclo[5.1.0]octan-2-yl)-2-(((S,Z)-2-(fluoromethylene)tetrahydro-1H-pyrrolizin-7a(5H)-yl)methoxy)pyrido[4,3-d]pyrimidin-7-yl)-5-(methoxy-d3)naphthalen-2-amine], over 7.30. For `[2H]C([2H])(F)Oc1c(F)cc(F)c2cc(N)cc(-c3ncc4c(N5CCCC[C@H]6[C@H](F)[C@H]65)nc(OC([2H])([2H])[C@@]56CCCN5C[C@H](F)C6)nc4c3F)c12` [Example 173, 6,8-difluoro-4-(8-fluoro-4-((1S,7R,8S)-8-fluoro-2-azabicyclo[5.1.0]octan-2-yl)-2-(((2R,7aS)-2-fluorotetrahydro-1H-pyrrolizin-7a(5H)-yl)methoxy-d2)pyrido[4,3-d]pyrimidin-7-yl)-5-(fluoromethoxy-d2)naphthalen-2-amine], the pIC50 was over 7.30. As for `[2H]C([2H])(Oc1nc(N2CC=CC[C@H]3[C@H](F)[C@H]32)c2cnc(-c3cc(N)cc4ccc(F)c(C#C)c34)c(F)c2n1)[C@@]12CCCN1C[C@H](F)C2` [Example 174, 5-Ethynyl-6-fluoro-4-(8-fluoro-4-((1S,7R,8S)-8-fluoro-2-azabicyclo[5.1.0]oct-4-en-2-yl)-2-(((2R,7aS)-2-fluorotetrahydro-1H-pyrrolizin-7a(5H)-yl)methoxy-d2)pyrido[4,3-d]pyrimidin-7-yl)naphthalen-2-amine], the pIC50 is over 7.30.

For `[2H]C([2H])(Oc1nc(N2CCOC[C@H]3[C@H](F)[C@H]32)c2cc(F)c(-c3nc(N)cc(C)c3C(F)(F)F)c(F)c2n1)[C@@]12CCCN1C[C@H](F)C2` [Example 175, 6-(6,8-difluoro-4-((1S,7S,8S)-8-fluoro-5-oxa-2-azabicyclo[5.1.0]octan-2-yl)-2-(((2R,7aS)-2-fluorotetrahydro-1H-pyrrolizin-7a(5H)-yl)methoxy-d2)quinazolin-7-yl)-4-methyl-5-(trifluoromethyl)pyridin-2-amine], the pIC50 is 6.30 to 7.30. With `[2H]C([2H])(Oc1nc(N2CCOC[C@@H]3[C@@H](F)[C@@H]32)c2cc(F)c(-c3nc(N)cc(C)c3C(F)(F)F)c(F)c2n1)[C@@]12CCCN1C[C@H](F)C2` [Example 176, 6-(6,8-difluoro-4-((1R,7R,8R)-8-fluoro-5-oxa-2-azabicyclo[5.1.0]octan-2-yl)-2-(((2R,7aS)-2-fluorotetrahydro-1H-pyrrolizin-7a(5H)-yl)methoxy-d2)quinazolin-7-yl)-4-methyl-5-(trifluoromethyl)pyridin-2-amine], the pIC50 was 5.00 to 6.30. For the compound `[2H]C([2H])(Oc1nc(N2CCOC[C@H]3[C@H](F)[C@H]32)c2cc(F)c(-c3cc(N)c(F)c(C)c3C(F)(F)F)c(F)c2n1)[C@@]12CCCN1C[C@H](F)C2` [Example 177, 5-(6,8-difluoro-4-((1S,7S,8S)-8-fluoro-5-oxa-2-azabicyclo[5.1.0]octan-2-yl)-2-(((2R,7aS)-2-fluorotetrahydro-1H-pyrrolizin-7a(5H)-yl)methoxy-d2)quinazolin-7-yl)-2-fluoro-3-methyl-4-(trifluoromethyl)aniline], the pIC50 was over 7.30. On to `[2H]C([2H])(Oc1nc(N2CCOC[C@@H]3[C@@H](F)[C@@H]32)c2cc(F)c(-c3cc(N)c(F)c(C)c3C(F)(F)F)c(F)c2n1)[C@@]12CCCN1C[C@H](F)C2` [Example 178, 5-(6,8-difluoro-4-((1R,7R,8R)-8-fluoro-5-oxa-2-azabicyclo[5.1.0]octan-2-yl)-2-(((2R,7aS)-2-fluorotetrahydro-1H-pyrrolizin-7a(5H)-yl)methoxy-d2)quinazolin-7-yl)-2-fluoro-3-methyl-4-(trifluoromethyl)aniline], for which the pIC50 is 5.00 to 6.30. Consider `[2H]C([2H])(Oc1nc(N2CCOC[C@H]3[C@H](F)[C@H]32)c2cc(Cl)c(-c3cc(N)cc(C)c3C(F)(F)F)c(F)c2n1)[C@@]12CCCN1C[C@H](F)C2` [Example 179, 3-(6-chloro-8-fluoro-4-((1S,7S,8S)-8-fluoro-5-oxa-2-azabicyclo[5.1.0]octan-2-yl)-2-(((2R,7aS)-2-fluorotetrahydro-1H-pyrrolizin-7a(5H)-yl)methoxy-d2)quinazolin-7-yl)-5-methyl-4-(trifluoromethyl)aniline], for which the pIC50 was 5.00 to 6.30.

Compound `[2H]C([2H])(Oc1nc(N2CCOC[C@H]3[C@H](F)[C@H]32)c2ccc(-c3cc(N)cc(C)c3C(F)(F)F)c(F)c2n1)[C@@]12CCCN1C[C@H](F)C2` [Example 180, 3-(8-fluoro-4-((1S,7S,8S)-8-fluoro-5-oxa-2-azabicyclo[5.1.0]octan-2-yl)-2-(((2R,7aS)-2-fluorotetrahydro-1H-pyrrolizin-7a(5H)-yl)methoxy-d2)quinazolin-7-yl)-5-methyl-4-(trifluoromethyl)aniline] gave a pIC50 of 5.00 to 6.30. Consider `[2H]C([2H])(Oc1nc(N2CCOC[C@@H]3[C@@H](F)[C@@H]32)c2cc(Cl)c(-c3cc(N)cc(C)c3C(F)(F)F)c(F)c2n1)[C@@]12CCCN1C[C@H](F)C2` [Example 181, 3-(6-chloro-8-fluoro-4-((1R,7R,8R)-8-fluoro-5-oxa-2-azabicyclo[5.1.0]octan-2-yl)-2-(((2R,7aS)-2-fluorotetrahydro-1H-pyrrolizin-7a(5H)-yl)methoxy-d2)quinazolin-7-yl)-5-methyl-4-(trifluoromethyl)aniline], for which the negative-log IC50 (pIC50) is 5.00 to 6.30. On to `[2H]C([2H])(Oc1nc(N2CCOC[C@@H]3[C@@H](F)[C@@H]32)c2ccc(-c3cc(N)cc(C)c3C(F)(F)F)c(F)c2n1)[C@@]12CCCN1C[C@H](F)C2` [Example 182, 3-(8-fluoro-4-((1R,7R,8R)-8-fluoro-5-oxa-2-azabicyclo[5.1.0]octan-2-yl)-2-(((2R,7aS)-2-fluorotetrahydro-1H-pyrrolizin-7a(5H)-yl)methoxy-d2)quinazolin-7-yl)-5-methyl-4-(trifluoromethyl)aniline], for which the pIC50 is 5.00 to 6.30. Take `[2H]C([2H])(Oc1nc(N2CCOC[C@H]3[C@H](F)[C@H]32)c2cc(Cl)c(-c3cc(N)cc(C4CC4)c3C(F)(F)F)c(F)c2n1)[C@@]12CCCN1C[C@H](F)C2` [Example 183, 3-(6-chloro-8-fluoro-4-((1S,7S,8S)-8-fluoro-5-oxa-2-azabicyclo[5.1.0]octan-2-yl)-2-(((2R,7aS)-2-fluorotetrahydro-1H-pyrrolizin-7a(5H)-yl)methoxy-d2)quinazolin-7-yl)-5-cyclopropyl-4-(trifluoromethyl)aniline]: the pIC50 is 5.00 to 6.30.
